The nature of series [1]: Excretion study of [^18F]FP-CIT in urine and feces of normal mice. The format is in vivo, C57BL/6 mice. The procedure: For excretion analysis, male C57BL/6 mice (group II) were injected with 37 MBq of [^18F]FP-CIT in the same way described above. The mice were kept in separate cages for urine and feces collection at different time points (1, 2, 3, 4, 5, and 6 h after injection; n = 6 each). Six pieces of absorbent paper were placed in the cages to ensure that all urine samples were absorbed into the paper when the test animals excreted the urine. Fecal samples were collected using felt. The urine remaining in the bladder was collected using a syringe after the mice were sacrificed at the endpoints. The samples collected at each time point were measured using a dose calibrator (CRC-127R; Capintec, Florham Park, NJ, USA). Decay correction of the radioactivity indicated on the dose calibrator at the relevant time points was performed.

In the next series the target is T1, dopamine transporter (Rattus norvegicus, UniProt P23977).
T1 construct: from tissue; host or cells: striatum of living Sprague-Dawley rats (in vivo PET/CT)
T1 sequence (P23977 whole entry): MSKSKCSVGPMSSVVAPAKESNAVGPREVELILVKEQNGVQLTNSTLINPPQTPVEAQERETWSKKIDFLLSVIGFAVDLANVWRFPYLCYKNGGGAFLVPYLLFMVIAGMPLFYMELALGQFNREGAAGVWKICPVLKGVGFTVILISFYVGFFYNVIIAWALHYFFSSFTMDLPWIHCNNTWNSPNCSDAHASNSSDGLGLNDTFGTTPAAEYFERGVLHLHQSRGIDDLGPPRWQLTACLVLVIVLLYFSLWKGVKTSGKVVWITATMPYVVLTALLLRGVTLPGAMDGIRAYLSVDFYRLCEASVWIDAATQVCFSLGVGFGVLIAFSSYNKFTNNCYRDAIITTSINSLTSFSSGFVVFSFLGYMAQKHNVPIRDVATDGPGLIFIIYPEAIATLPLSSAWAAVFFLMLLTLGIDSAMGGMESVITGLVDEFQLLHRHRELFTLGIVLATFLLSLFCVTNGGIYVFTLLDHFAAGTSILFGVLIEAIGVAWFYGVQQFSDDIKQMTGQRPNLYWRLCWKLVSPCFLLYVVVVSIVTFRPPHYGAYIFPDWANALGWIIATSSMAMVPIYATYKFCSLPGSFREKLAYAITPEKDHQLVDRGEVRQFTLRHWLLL
The series is described as follows: Animal PET/CT imaging of [^18F]FP-CIT in the 6-OHDA-induced rat model. The settings on record: for SUV of lesion site uptake: 37 MBq i.v. Format: in vivo, Sprague–Dawley rats. The procedure:
We induced the PD model in rats using 6-OHDA according to a previous study. Briefly, female Sprague–Dawley rats (group IV) were intraperitoneally pretreated with desipramine […] (12.5 mg/kg; 12.5 mg/mL). The rats were anesthetized with 3% isoflurane in oxygen, had their heads shaved, and were placed in a stereotactic frame. A lesion in the right striatum was induced by 6-OHDA injection (4 μg/μL, 2 μL/site in 0.2% ascorbic acid) into four coordinate sites (anterior–posterior (AP) + 1.3, + 0.4, − 0.4, and − 1.3 mm; medial–lateral (ML) − 2.6, − 3.0, − 4.2, and − 4.5 mm; and dorsal–ventral (DV) − 5.0 mm) using a 26G Hamilton syringe at a rate of 1 μL/min (n = 3). The syringe was withdrawn slowly 5 min after the injection, and the wound was sutured. The surgical procedure in the sham group was also performed in the same manner using […] in normal saline instead of 6-OHDA (n = 3). All of the rats were randomly assigned to PD and sham model groups.
To evaluate the uptake targeting efficacy in the striatum, animal PET/CT imaging of [^18F]FP-CIT was performed in the same week following the behavioral tests on the group IV 6-OHDA PD model (PD model and sham model, n = 3 per group). PET/CT images were acquired using nanoScan® PET/CT (Mediso Medical Imaging Systems, Budapest, Hungary). PET image acquisition was performed as previously described. Rats were anesthetized with 2% isoflurane in oxygen, and 37 MBq of [^18F]FP-CIT in 1 mL of saline was intravenously injected via the tail vein using a syringe pump (Pump Elite 11, Harvard Apparatus, USA) over 1 min. Dynamic PET scanning was performed for 60 min with 24 frames ([…], 3 × 60, 4 × 300, and 3 × 600 s). Image scans were acquired in the energy window of 400–600 keV. All images were reconstructed using a three-dimensional ordered subset expectation maximization (3D-OSEM) algorithm with four iterations and six subsets. For attenuation correction and anatomical reference, CT imaging was performed immediately after PET using a 50 kVp of X-ray voltage with 0.16 mAs.
To define the anatomical volumes of interest (VOIs), MR scans were obtained on a 31 cm horizontal-bore Agilent 9.4T scanner (Agilent Technologies, Santa Clara, CA, USA) using a 4-channel array mouse head surface coil following PET/CT imaging (Rapid Biomedical GmbH, Rimpar, Germany) (PD model and sham model, n = 3 each). […] The respiratory rates of the rats were monitored using an MR-compatible physiological monitoring and gating system during image acquisition (SA Instruments Inc., USA).
Each PET image was co-registered with the raw MR image to compare the regional [^18F]FP-CIT uptake in the striatum. […] The obtained uptake value, represented as the standardized uptake value (SUV), was determined for each VOI. […]

Where “and” joins values, the source holds several entries; their conditions need not be identical. Equal values may be shown once.

On to `COC(=O)[C@H]1[C@@H](c2ccc(I)cc2)C[C@@H]2CC[C@H]1N2CCCF` [[^18F]FP-CIT, N-(3-fluoropropyl)-2β-carboxymethoxy-3β-(4-iodophenyl) nortropane], for which the “Accumulated excretion radioactivity (Decay corrected)” value in series [1] (1 h, Mean ± SD of 6 mice (group II)) is 0.03 ± 0.04 mCi; in series [1] (1 h, individual mice no. 1-6 (group II), 37 MBq i.v.), 0.00 mCi and 0.01 mCi and 0.10 mCi and 0.03 mCi and 0.02 mCi; in series [1] (2 h, Mean ± SD of 6 mice (group II)) it was 0.05 ± 0.04 mCi; in series [1] (2 h, individual mice no. 1-6 (group II), 37 MBq i.v.), 0.07 mCi and 0.01 mCi and 0.11 mCi and 0.02 mCi and 0.05 mCi; in series [1] (3 h, Mean ± SD of 6 mice (group II)), 0.06 ± 0.05 mCi; in series [1] (3 h, individual mice no. 1-6 (group II), 37 MBq i.v.), 0.07 mCi and 0.01 mCi and 0.15 mCi and 0.02 mCi and 0.08 mCi and 0.05 mCi. In addition, the “Accumulated excretion radioactivity (Decay corrected)” value in series [1] (4 h, Mean ± SD of 6 mice (group II)) was 0.08 ± 0.06 mCi; in series [1] (4 h, individual mice no. 1-6 (group II), 37 MBq i.v.) it was 0.11 mCi and 0.01 mCi and 0.16 mCi and 0.02 mCi and 0.09 mCi and 0.08 mCi; in series [1] (5 h, Mean ± SD of 6 mice (group II)), 0.09 ± 0.05 mCi; in series [1] (5 h, individual mice no. 1-6 (group II), 37 MBq i.v.), 0.11 mCi and 0.04 mCi and 0.17 mCi and 0.02 mCi and 0.09 mCi and 0.08 mCi; in series [1] (6 h, Mean ± SD of 6 mice (group II)), 0.09 ± 0.05 mCi; in series [1] (6 h, individual mice no. 1-6 (group II), 37 MBq i.v.), 0.12 mCi and 0.04 mCi and 0.17 mCi and 0.02 mCi and 0.10 mCi. Further, the Excretion ratio in series [1] (till 6 h, individual mice no. 1-6 (group II)) is 26.99% and 14.17% and 31.89% and 6.20% and 22.94% and 26.58%. For the same compound, the “time at which transient equilibrium tendency appeared in TACs” value on dopamine transporter (intact striatum, post-injection) was “approximately 5 min”. In addition, the “reduction of lesion site SUV, PD group vs sham group” value on dopamine transporter (striatum lesion site) is reported as 55.4%. The “SUV of lesion site uptake” value was found to be 1.85 ± 0.13 at dopamine transporter (striatum lesion site, PD group (6-OHDA)) and 4.15 ± 0.86 on dopamine transporter (striatum lesion site, sham group).

Source of the values: paper PMC11222350, “Preclinical evaluation of [^18F]FP-CIT, the radiotracer targeting dopamine transporter for diagnosing Parkinson’s disease: pharmacokinetic and efficacy analysis” (EJNMMI Research, 2024).
